Test system: human endometrial cancer cell line MFE-280
Test: Measurement of antitumor effect in MFE-280 cancer-bearing mice
Type: in vivo
Conditions: 200 mg/kg, orally once daily, MFE-280 subcutaneous xenograft in BALB/c nude mice, 11th day after start of administration

Structure (SMILES): CCS(=O)(=O)c1ccc(Cl)cc1Cn1c(=O)[nH]c2c(Cl)c(CN3CCNCC3)c(C(F)(F)F)cc2c1=O [Compound F-1, 8-Chloro-3-(5-chloro-2-ethanesulfonyl-benzyl)-7-piperazin-1-ylmethyl-6-trifluoromethyl-1H-quinazoline-2,4-dione]
- Antitumor effect TGI after 11 days (%): 61%

— patent US9567304B2, “Quinazolinedione derivative” (Chugai Seiyaku Kabushiki Kaisha, priority 2012, dated 2017)
